Columns and labels:
[1] = Liver microsomal stability (human); format: in vitro ADME
Summary of the method: (§1)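 Human, mouse and rat liver microsomes were incubated with NADPH and MgCl2 in 0.1 M Tris pH 7.4, with compound at a 0.2 μM working solution. Remaining compound was quantified by LC/MS over the incubation time. The slope of log remaining versus time gave Clint, which was scaled to predicted Cl, Clhep and % MF.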

[2] = Liver microsomal stability (rat); format: in vitro ADME
Summary of the method: as §1

Pfeiffer cells = assay: Pfeiffer cell growth inhibition in a long term (11 days), CellTiter-Glo; format: cell-based, Human; conditions: Homo sapiens, 264 h, 11 days, read-out: Experiment on Pfeiffer cell growth inhibition in a long term (11 days IC50)
Summary of the method: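 Exponentially growing cells seeded at 1*10E5 cells/mL and treated the same day with a concentration range. Media and compound were refreshed at days 4 and 7. Viability was read by CellTiter-Glo after 11 days and GI50 values were derived.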

PRC2 enzyme = PRC2 enzyme (Homo sapiens (Human), UniProt O75530); assay: PRC2 enzyme activity, TR-FRET method; format: biochemical
PRC2 enzyme, sequence (O75530 whole entry): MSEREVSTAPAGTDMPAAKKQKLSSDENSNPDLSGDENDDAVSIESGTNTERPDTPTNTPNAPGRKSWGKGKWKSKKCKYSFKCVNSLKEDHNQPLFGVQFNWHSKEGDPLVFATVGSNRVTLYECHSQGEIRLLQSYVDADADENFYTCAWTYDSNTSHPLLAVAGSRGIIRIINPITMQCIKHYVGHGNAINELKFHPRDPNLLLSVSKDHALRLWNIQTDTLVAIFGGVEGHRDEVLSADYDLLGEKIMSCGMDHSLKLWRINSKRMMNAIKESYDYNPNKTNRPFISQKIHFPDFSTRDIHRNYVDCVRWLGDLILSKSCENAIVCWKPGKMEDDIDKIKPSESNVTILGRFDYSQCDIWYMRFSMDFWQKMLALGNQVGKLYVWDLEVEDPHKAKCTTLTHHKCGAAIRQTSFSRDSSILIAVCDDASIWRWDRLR
PRC2 enzyme, sequence (Q15910 whole entry partner): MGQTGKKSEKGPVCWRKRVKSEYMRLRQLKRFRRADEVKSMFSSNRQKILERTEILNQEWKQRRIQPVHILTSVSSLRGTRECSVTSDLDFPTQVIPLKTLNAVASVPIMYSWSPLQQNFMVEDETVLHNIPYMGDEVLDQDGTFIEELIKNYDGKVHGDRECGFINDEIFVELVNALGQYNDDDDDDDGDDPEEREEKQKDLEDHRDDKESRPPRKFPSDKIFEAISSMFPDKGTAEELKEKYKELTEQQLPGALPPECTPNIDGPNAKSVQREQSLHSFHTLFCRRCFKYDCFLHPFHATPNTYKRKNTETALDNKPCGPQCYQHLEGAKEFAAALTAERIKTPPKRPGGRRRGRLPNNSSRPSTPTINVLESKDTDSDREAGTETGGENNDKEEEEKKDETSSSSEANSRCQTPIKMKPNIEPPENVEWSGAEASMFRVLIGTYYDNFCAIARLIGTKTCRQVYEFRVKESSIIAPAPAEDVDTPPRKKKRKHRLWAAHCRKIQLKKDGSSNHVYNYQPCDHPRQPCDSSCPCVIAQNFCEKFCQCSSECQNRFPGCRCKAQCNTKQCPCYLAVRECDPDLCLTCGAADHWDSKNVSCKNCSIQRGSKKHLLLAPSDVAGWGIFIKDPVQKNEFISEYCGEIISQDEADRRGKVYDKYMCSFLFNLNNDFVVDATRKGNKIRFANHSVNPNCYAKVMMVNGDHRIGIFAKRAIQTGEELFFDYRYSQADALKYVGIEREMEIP
PRC2 enzyme, sequence (Q15022 whole entry partner): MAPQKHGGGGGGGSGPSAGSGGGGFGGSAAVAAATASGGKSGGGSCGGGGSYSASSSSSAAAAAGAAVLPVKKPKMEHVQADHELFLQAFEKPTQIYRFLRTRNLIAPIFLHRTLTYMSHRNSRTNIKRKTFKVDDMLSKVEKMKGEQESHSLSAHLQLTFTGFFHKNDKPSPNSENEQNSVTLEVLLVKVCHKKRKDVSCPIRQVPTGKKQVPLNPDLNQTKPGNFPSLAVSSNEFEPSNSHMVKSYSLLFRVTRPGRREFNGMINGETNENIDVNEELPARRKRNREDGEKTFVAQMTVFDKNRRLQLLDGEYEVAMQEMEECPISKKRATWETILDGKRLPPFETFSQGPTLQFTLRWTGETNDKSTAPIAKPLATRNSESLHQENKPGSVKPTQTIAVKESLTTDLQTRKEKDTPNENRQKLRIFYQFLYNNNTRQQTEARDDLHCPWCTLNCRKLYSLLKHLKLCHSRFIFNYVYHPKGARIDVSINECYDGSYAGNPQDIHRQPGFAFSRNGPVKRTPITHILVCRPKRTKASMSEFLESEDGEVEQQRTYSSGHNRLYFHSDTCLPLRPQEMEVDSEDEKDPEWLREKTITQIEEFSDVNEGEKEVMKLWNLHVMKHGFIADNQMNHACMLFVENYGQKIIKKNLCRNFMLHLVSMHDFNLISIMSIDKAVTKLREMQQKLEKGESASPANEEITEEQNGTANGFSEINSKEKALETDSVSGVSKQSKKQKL
Summary of the method: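 Enzyme preincubated with compound 30 min at room temperature; reaction started with biotin-labeled histone H3 peptide and SAM, run 4 h at room temperature.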

[3] = Oral pharmacokinetics in rats; format: in vivo; conditions: male, SD, plasma, rat, intragastric, 3 mg/kg
Method: 1. Healthy male SD rats were used as test animals, EED226, […]-07 (3 mg/kg) were administered intragastrically, and the drug concentrations in rat plasma were determined by LC/MS/MS method at different time points after drug administration. The pharmacokinetic behavior of the compounds of the present invention in rats was studied, and the pharmacokinetic properties were evaluated. 2. The test animals were healthy adult male SD rats, with 3 rats in each group, purchased from Shanghai Xipuer-Bikai Laboratory Animal Limited Company. 3. Drug preparation: Compounds EED226, […] were dissolved in DMSO/0.5% HPMC (5/95, v/v) for preparation. The compound SL-ZYE-07 was dissolved in 0.5% HPMC (containing 0.5% Tween 80), vortexed, and sonicated to disperse the solid matter uniformly to obtain a pale white suspension. 4, Operation: EED226, […]-07 were administered to rats by intragastric administration (3 mg/kg), 45 μL of blood was taken through the femoral vein at 0.25, 0.5, 1, 2, 4, 8, 24 hour after administration, and centrifuged in a heparinized centrifuge tube for 5 min, and the plasma samples were separated for analysis. The contents of test compounds in rat plasma after intragastric administration of different compounds were determined by Liquid chromatography-mass spectrometry (LC-MS/MS).

[4] = Liver microsomal stability (mouse); format: in vitro ADME
Karpas-422 cells = assay: Growth inhibition of Karpas-422 cells in a long term (11 days), CellTiter-Glo; format: cell-based, Human; conditions: Homo sapiens, 264 h; Karpas-422, 11 days; read-out: Karpas-422 (11 days) IC50

Clearance rate in vivo Clint In Vivo Extpl ([1]; human liver microsomes): 1732 mL/min
Intrinsic clearance rate in vivo Clint In Vitro ([1]; human liver microsomes): 22.6 mL/min/gprot
Liver clearance rate Clint Hep In Vivo Extpl ([1]; human liver microsomes): 804 mL/min
half-life ([1]; human, liver microsomes, pH 7.4, human liver microsomes, read-out: Half life T-half): 1.55 h
bioavailability ([1]; human, liver microsomes, pH 7.4, human liver microsomes, read-out: Metabolic bioavailability MF %): 46.4%
Clearance rate in vivo Clint In Vivo Extpl ([2]; rat liver microsomes): 15.9 mL/min
Intrinsic clearance rate in vivo Clint In Vitro ([2]; rat liver microsomes): 35.2 mL/min/gprot
Liver clearance rate Clint Hep In Vivo Extpl ([2]; rat liver microsomes): 8.85 mL/min
Metabolic bioavailability MF % ([2]; rat liver microsomes): 53.9%
half-life ([2]; rat, liver microsomes, pH 7.4, rat liver microsomes, read-out: Half life T-half): 0.92 h
IC50 (Pfeiffer cells): 3.2 nM
IC50 (PRC2 enzyme): 19 nM
AUC(0-t) [3]: 529 ± 150 ng·h/mL
AUC(0-inf) ([3]; extrapolated to infinity, read-out: AUCINF_obs): 539 ± 150 ng·h/mL
MRT inf ([3]; read-out: Average residence time MRTINF_obs): 2.06 ± 0.484 h
half-life ([3]; read-out: Half life T1/2 (converted)): 1.37 ± 0.212 h
Cmax ([3]; read-out: Peak concentration Cmax): 376 ± 273 ng/mL
Clearance rate in vivo Clint In Vivo Extpl ([4]; mouse liver microsomes): 1.50 mL/min
Intrinsic clearance rate in vivo Clint In Vitro ([4]; mouse liver microsomes): 22.2 mL/min/gprot
Liver clearance rate Clint Hep In Vivo Extpl ([4]; mouse liver microsomes): 1.00 mL/min
Metabolic bioavailability MF % ([4]; mouse liver microsomes): 66.7%
half-life ([4]; mouse, liver microsomes, pH 7.4, mouse liver microsomes, read-out: Half life T-half): 1.58 h
IC50 (Karpas-422 cells): 13 nM
SMILES: CS(=O)(=O)N1CC=C(c2cnc(NCc3c(F)ccc4c3CCO4)n3cnnc23)CC1 [E-Y13]
